Data: US8871753B2, “Macrocyclic compounds and their use as kinase inhibitors” (Incyte Corporation, priority 2008, dated 2014)
Where a name gives a salt, the structure may show the parent alone. Read-outs that look alike come from different tables or passages of the source.

Columns and labels:
Assay type in all cases: biochemical
[1] = molecular target: TYK2 (Homo sapiens, UniProt P29597); test: TYK2 kinase inhibition (Table A1)
[2] = molecular target: T1, human JAK1 (a.a. 837-1142) (Homo sapiens, UniProt P23458); test: In vitro JAK kinase assay (HTRF, phosphorylation of a biotinylated peptide), JAK1; details: read-out: JAK1 IC50
T1 construct: human JAK1 (a.a. 837-1142); His tag (N); made in house; host or cells: insect cells (baculovirus)
T1 sequence (P23458 849-1154): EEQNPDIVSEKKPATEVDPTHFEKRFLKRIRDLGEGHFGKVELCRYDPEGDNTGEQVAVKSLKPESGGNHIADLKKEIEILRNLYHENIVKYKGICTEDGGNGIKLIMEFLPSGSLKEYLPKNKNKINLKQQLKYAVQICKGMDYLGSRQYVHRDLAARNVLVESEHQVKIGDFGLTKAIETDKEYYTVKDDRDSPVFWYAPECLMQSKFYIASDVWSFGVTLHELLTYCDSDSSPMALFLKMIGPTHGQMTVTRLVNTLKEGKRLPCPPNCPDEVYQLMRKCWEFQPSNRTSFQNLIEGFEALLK
Method in brief: (§1)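 Kinase reactions ran at room temperature for 1 h with ATP matched per isoform (JAK1 90 μM, JAK2 30 μM, JAK3 3 μM). After an EDTA stop, the phosphorylated biotin-peptide was read by HTRF using Eu-Py20 and SA-APC after 40 min binding.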

[3] = molecular target: T2, human JAK2 (a.a. 828-1132) (Homo sapiens, UniProt O60674); test: In vitro JAK kinase assay (HTRF, phosphorylation of a biotinylated peptide), JAK2
T2 construct: JAK2 (a.a. 828-1132); His tag (N); made in house; host or cells: insect cells (baculovirus)
T2 sequence (O60674 828-1132): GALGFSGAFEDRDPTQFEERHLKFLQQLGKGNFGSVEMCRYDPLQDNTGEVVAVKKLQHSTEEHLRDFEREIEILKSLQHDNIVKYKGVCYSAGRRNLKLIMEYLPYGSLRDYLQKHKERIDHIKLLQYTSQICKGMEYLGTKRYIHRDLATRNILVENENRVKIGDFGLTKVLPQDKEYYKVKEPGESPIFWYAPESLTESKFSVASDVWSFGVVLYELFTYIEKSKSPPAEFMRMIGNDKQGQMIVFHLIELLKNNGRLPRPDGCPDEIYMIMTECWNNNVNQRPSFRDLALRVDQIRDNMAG
Method in brief: as §1

[4] = molecular target: T3, human JAK3 (a.a. 781-1124) (Homo sapiens, UniProt P52333); test: In vitro JAK kinase assay (HTRF, phosphorylation of a biotinylated peptide), JAK3
T3 construct: JAK3 (a.a. 781-1124); His tag (N); made in house; host or cells: insect cells (baculovirus)
T3 sequence (P52333 781-1124): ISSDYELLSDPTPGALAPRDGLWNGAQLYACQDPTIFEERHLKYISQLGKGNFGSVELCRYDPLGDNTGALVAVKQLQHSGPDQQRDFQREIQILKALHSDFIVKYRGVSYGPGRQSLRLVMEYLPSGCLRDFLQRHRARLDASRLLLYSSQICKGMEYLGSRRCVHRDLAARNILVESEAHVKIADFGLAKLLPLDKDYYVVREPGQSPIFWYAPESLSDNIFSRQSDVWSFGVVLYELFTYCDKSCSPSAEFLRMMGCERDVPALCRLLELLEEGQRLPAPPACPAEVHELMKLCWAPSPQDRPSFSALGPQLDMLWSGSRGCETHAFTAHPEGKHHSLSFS
Method in brief: as §1

[5] = molecular target: T4, Recombinant Human Anaplastic Lymphoma Kinase (Homo sapiens, UniProt Q9UM73); test: ALK HTRF kinase assay
T4 construct: purchased Invitrogen, Carlsbad, Calif
T4 sequence (Q9UM73 19-1620): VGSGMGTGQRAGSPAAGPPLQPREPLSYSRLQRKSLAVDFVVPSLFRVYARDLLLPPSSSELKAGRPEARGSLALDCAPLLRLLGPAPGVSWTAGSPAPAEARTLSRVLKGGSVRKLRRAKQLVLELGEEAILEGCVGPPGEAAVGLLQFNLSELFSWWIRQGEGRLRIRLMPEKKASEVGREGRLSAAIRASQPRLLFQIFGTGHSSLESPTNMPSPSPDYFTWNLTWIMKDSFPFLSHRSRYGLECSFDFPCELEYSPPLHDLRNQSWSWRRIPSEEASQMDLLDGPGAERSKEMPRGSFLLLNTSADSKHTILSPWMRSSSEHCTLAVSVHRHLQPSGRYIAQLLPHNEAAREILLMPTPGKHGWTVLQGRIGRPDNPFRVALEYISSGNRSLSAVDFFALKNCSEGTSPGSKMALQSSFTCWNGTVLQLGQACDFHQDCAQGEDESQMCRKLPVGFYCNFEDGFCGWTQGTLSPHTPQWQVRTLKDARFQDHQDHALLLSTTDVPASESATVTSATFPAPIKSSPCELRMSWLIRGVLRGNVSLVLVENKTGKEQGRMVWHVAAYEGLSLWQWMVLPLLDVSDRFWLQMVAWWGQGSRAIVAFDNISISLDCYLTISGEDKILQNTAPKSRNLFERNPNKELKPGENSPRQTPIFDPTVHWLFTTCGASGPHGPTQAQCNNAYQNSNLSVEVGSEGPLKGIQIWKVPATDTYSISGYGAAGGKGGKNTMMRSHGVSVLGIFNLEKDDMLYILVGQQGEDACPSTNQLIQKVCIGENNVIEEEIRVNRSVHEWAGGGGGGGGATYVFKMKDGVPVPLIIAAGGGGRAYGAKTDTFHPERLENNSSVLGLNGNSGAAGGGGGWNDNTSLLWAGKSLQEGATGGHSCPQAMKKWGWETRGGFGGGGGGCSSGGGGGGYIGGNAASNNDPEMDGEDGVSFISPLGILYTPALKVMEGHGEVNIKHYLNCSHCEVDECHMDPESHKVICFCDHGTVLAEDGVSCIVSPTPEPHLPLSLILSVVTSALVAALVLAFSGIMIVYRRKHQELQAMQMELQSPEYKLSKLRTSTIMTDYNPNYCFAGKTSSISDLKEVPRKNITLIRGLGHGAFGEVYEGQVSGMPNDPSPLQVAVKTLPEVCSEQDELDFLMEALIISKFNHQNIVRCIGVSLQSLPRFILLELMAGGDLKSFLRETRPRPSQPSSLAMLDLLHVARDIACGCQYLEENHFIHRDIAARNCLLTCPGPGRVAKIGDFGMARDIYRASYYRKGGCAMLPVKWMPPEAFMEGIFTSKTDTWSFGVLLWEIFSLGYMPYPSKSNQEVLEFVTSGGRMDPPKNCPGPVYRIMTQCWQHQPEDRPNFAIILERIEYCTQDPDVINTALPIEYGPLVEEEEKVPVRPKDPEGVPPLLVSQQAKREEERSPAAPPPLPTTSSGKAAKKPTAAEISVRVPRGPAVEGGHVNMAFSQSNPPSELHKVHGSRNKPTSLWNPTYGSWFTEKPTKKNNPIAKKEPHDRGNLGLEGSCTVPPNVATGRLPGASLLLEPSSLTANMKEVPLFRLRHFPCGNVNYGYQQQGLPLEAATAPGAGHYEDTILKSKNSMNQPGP
Method in brief: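 TR-FRET read-out (Eu anti-pTyr antibody + streptavidin-APC) of biotin-peptide phosphorylation by recombinant human enzyme; IC50 by sigmoidal fit with top/bottom baselines and Hill slope.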

[6] = method AA1 (90 μM ATP) or AA2 (1000 μM ATP), not stated per value
[7] = method AA1 (30 μM ATP) or AA2 (1000 μM ATP), not stated per value
[8] = method AA1 (3 μM ATP) or AA2 (1000 μM ATP), not stated per value
[9] = compound at 500 nM or 1 mM, 90 μM ATP
[10] = percentage inhibition of the example compound at a concentration of 500 nM or 1 mM (not specified which)
[11] = compound at a concentration of 500 nM or 1 mM (not specified), cells shown as percentage

Chain of TYK2 (P29597 whole entry): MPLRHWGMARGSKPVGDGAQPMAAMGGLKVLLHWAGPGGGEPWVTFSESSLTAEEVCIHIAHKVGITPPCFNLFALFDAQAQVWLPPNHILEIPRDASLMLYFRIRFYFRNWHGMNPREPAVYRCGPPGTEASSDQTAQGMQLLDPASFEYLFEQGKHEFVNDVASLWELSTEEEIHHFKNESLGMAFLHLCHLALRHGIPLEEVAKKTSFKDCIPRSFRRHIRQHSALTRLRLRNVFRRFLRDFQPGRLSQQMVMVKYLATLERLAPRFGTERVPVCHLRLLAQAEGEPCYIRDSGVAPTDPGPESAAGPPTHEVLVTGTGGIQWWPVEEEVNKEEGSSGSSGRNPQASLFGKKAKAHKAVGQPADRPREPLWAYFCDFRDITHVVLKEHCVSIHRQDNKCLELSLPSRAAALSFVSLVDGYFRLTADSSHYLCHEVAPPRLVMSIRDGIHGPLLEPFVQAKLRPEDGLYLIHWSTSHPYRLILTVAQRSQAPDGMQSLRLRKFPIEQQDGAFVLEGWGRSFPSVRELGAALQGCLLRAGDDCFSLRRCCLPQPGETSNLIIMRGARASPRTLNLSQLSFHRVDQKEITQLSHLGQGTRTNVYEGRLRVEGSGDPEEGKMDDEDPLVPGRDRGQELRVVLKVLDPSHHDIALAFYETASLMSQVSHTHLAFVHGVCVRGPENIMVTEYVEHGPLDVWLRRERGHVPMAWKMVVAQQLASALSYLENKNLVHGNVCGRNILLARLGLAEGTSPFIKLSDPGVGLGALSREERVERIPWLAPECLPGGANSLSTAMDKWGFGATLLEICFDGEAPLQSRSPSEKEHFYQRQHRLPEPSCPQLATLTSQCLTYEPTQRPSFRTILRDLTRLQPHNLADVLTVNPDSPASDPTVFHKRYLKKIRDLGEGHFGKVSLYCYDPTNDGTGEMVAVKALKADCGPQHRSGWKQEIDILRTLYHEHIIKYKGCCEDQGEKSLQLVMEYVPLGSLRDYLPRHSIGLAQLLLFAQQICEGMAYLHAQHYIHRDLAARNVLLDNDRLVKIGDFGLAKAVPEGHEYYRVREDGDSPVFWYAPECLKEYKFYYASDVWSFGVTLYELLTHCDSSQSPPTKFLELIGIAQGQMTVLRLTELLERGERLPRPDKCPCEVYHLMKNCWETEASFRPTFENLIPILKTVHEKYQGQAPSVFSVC

SMILES	IC50 [1]	IC50 [2, 6]	IC50 [3, 7]	IC50 [4, 8]	ALK % of inhibition at a concentration of 500 nM or 1 mM [5, 9]	also measured
Clc1cnc2nc1Nc1cccc(c1)OCCc1cc(cc(-c3ccncc3)c1)N2 [Example D25, 6-Chloro-19-pyridin-4-yl-14-oxa-2,4,8,23-tetraazatetracyclo[15.3.1.1(3,7).1(9,13)]tricosa-1(21),3(23),4,6,9(22),10,12,17,19-nonaene bis(trifluoroacetate)]	–	–	–	–	–	IC50 ([1]; Table D1): 2.1 nM; IC50 ([2]; Table D1): 1.1 nM; IC50 ([3]; Table D1): 0.3 nM; IC50 ([4]; Table D1): 8.8 nM; IC50 ([5]; Table D1, 90 μM ATP): 110 nM
COc1ccc(NC(=O)N2CCC(CC(=O)Nc3ccc4cc3CCc3cncc(c3)Nc3ncc(Cl)c(n3)N4)CC2)cc1 [Example A154, 4-(2-{[6-Chloro-2,4,8,18,22-pentaazatetracyclo[14.3.1.1(3,7).1(9,13)]docosa-1(20),3(22),4,6,9(21),10,12,16,18-nonaen-12-yl]amino}-2-oxoethyl)-N-(4-methoxyphenyl)piperidine-1-carboxamide bis(trifluoroacetate)]	3.1 nM	0.6 nM	2.6 nM	> 100 nM	51%	–
O=C(Nc1ccc2cc1CCc1cncc(c1)Nc1ncc(Cl)c(n1)N2)N1CCN(c2cccc(Cl)c2)CC1 [Example B306, N-[6-Chloro-2,4,8,18,22-pentaazatetracyclo[14.3.1.1(3,7).1(9,13)]docosa-1(20),3(22),4,6,9(21),10,12,16,18-nonaen-12-yl]-4-(3-chlorophenyl)piperazine-1-carboxamide tris(trifluoroacetate)]	–	–	–	–	–	IC50 ([1]; Table B1): 43 nM; IC50 ([2]; Table B1): 27 nM; IC50 ([3]; Table B1): 265 nM; IC50 ([4]; Table B1): > 400 nM; ALK % of inhibition at a concentration of 500 nM or 1 mM [5, 10]: 72%
O=S(=O)(Nc1ccc2cc1CCc1cccc(c1)Nc1ncc(Cl)c(n1)N2)C1CC1 [Example B158, N-[6-Chloro-2,4,8,22-tetraazatetracyclo[14.3.1.1(3,7).1(9,13)]docosa-1(20), 3(22),4,6,9(21),10,12,16,18-nonaen-12-yl]cyclopropanesulfonamide trifluoroacetate]	–	–	–	–	–	IC50 ([1]; Table B1): 0.49 nM; IC50 ([2]; Table B1): 0.15 nM; IC50 ([3]; Table B1): 0.15 nM; IC50 ([4]; Table B1): 0.64 nM; ALK % of inhibition at a concentration of 500 nM or 1 mM [5, 11]: 71%
Clc1cnc2nc1Nc1cccc(c1)CCSCc1cccc(c1)N2 [Example D34, 6-Chloro-16-thia-2,4,8,24-tetraazatetracyclo[16.3.1.1(3,7).1(9,13)]tetracosa-1(22),3(24),4,6,9(23),10,12,18,20-nonaene trifluoroacetate]	–	–	–	–	–	IC50 ([1]; Table D1): 211 nM; IC50 ([2]; Table D1): 123 nM; IC50 ([3]; Table D1): 91 nM; IC50 ([4]; Table D1): 136 nM; IC50 ([5]; Table D1, 90 μM ATP): > 1000 nM
O=C(Nc1ccc2cc1CCc1cccc(c1)Nc1ncc(Cl)c(n1)N2)C1CCN(C(=O)c2ccco2)CC1 [Example A32, N-[6-Chloro-2,4,8,22-tetraazatetracyclo[14.3.1.1(3,7).1(9,13)]docosa-1(20), 3(22),4,6,9(21),10,12,16,18-nonaen-12-yl]-1-(2-furoyl)piperidine-4-carboxamide trifluoroacetate]	66 nM	30 nM	29 nM	35 nM	30%	–
Cc1ccc2cc1Nc1ncc(Cl)c(n1)Nc1cccc(c1)CC2 [Example A7, 6-Chloro-19-methyl-2,4,8,22-tetraazatetracyclo[14.3.1.1(3,7).1(9,13)]docosa-1(20),3(22),4,6,9(21),10,12,16,18-nonaene trifluoroacetate]	150 nM	128 nM	32 nM	300 nM	–	IC50 ([5]; 90 μM ATP): 523 nM
N#Cc1cccc(NC(=O)N2CCC(CC(=O)Nc3ccc4cc3CCc3cncc(c3)Nc3ncc(Cl)c(n3)N4)CC2)c1 [Example A142, 4-(2-{[6-Chloro-2,4,8,18,22-pentaazatetracyclo[14.3.1.1(3,7).1(9,13)]docosa-1(20),3(22),4,6,9(21),10,12,16,18-nonaen-12-yl]amino}-2-oxoethyl)-N-(3-cyanophenyl)piperidine-1-carboxamide bis(trifluoroacetate)]	6.5 nM	2.4 nM	4.8 nM	> 100 nM	41%	–
N#Cc1ccc(NC(=O)N2CCN(C(=O)COc3ccc4cc3CCc3cccc(c3)Nc3ncc(Cl)c(n3)N4)CC2)cc1 [Example A9, 4-({[6-Chloro-2,4,8,22-tetraazatetracyclo[14.3.1.1(3,7).1(9,13)]docosa-1(20),3(22),4,6,9(21),10,12,16,18-nonaen-12-yl]oxy}acetyl)-N-(4-cyanophenyl)piperazine-1-carboxamide trifluoroacetate]	22 nM	9.1 nM	19 nM	67 nM	0%	–
O=C(CC1CCN(c2nncs2)CC1)Nc1ccc2cc1CCc1cccc(c1)Nc1ncc(Cl)c(n1)N2 [Example A183, N-[6-Chloro-2,4,8,22-tetraazatetracyclo[14.3.1.1(3,7).1(9,13)]docosa-1(20),3(22),4,6,9(21),10,12,16,18-nonaen-12-yl]-2-[1-(1,3,4-thiadiazol-2-yl)piperidin-4-yl]acetamide bis(trifluoroacetate)]	30 nM	3.6 nM	22 nM	> 200 nM	40%	–
CC(=O)N1CCC(C(=O)Nc2ccc3cc2CCc2cccc(c2)Nc2ncc(Cl)c(n2)N3)CC1 [Example A29, 1-Acetyl-N-[6-chloro-2,4,8,22-tetraazatetracyclo[14.3.1.1(3,7).1(9,13)]docosa-1(20),3(22),4,6,9(21),10,12,16,18-nonaen-12-yl]piperidine-4-carboxamide trifluoroacetate]	65 nM	42 nM	31 nM	31 nM	30%	–
Clc1cnc2nc1Nc1cccc(c1)CNc1cccc(c1)N2 [Example D17, 6-Chloro-2,4,8,15,22-pentaazatetracyclo[14.3.1.1(3,7).1(9,13)]docosa-1(20),3(22),4,6,9(21),10,12,16,18-nonaene bis(trifluoroacetate)]	–	–	–	–	–	IC50 ([1]; Table D1): 77 nM; IC50 ([2]; Table D1): 63 nM; IC50 ([3]; Table D1): 32 nM; IC50 ([4]; Table D1): 165 nM; IC50 ([5]; Table D1, 90 μM ATP): > 1000 nM
O=C(Nc1cc2cc(c1)Nc1nc(ncc1Cl)Nc1cccc(c1)CC2)NC1CCCC1 [Example B215, N-[6-Chloro-2,4,8,22-tetraazatetracyclo[14.3.1.1(3,7).1(9,13)]docosa-1(20),3(22),4,6,9(21),10,12,16,18-nonaen-11-yl]-N′-cyclopentylurea trifluoroacetate]	–	–	–	–	–	IC50 ([1]; Table B1): 766 nM; IC50 ([2]; Table B1): 91 nM; IC50 ([3]; Table B1): 43 nM; IC50 ([4]; Table B1): 189 nM; ALK % of inhibition at a concentration of 500 nM or 1 mM [5, 11]: 31%
CS(=O)(=O)N1CCN(C(=O)Nc2ccc3cc2CCc2cncc(c2)Nc2ncc(Cl)c(n2)N3)CC1 [Example B318, N-[6-Chloro-2,4,8,18,22-pentaazatetracyclo[14.3.1.1(3,7).1(9,13)]docosa-1(20),3(22),4,6,9(21),10,12,16,18-nonaen-12-yl]-4-(methylsulfonyl)piperazine-1-carboxamide bis(trifluoroacetate)]	–	–	–	–	–	IC50 ([1]; Table B1): 70 nM; IC50 ([2]; Table B1): 24 nM; IC50 ([3]; Table B1): 371 nM; IC50 ([4]; Table B1): > 400 nM; ALK % of inhibition at a concentration of 500 nM or 1 mM [5, 10]: 61%
N#Cc1c(Cl)cncc1N1CCC(CC(=O)Nc2ccc3cc2CCc2cncc(c2)Nc2ncc(Cl)c(n2)N3)CC1 [Example A240, 2-[1-(5-Chloro-4-cyanopyridin-3-yl)piperidin-4-yl]-N-[6-chloro-2,4,8,18,22-pentaazatetracyclo[14.3.1.1(3,7).1(9,13)]docosa-1(20),3(22),4,6,9(21),10,12,16,18-nonaen-12-yl]acetamide tris(trifluoroacetate)]	244 nM	1.5 nM	80 nM	> 400 nM	29%	–
O=C(Nc1ccccc1)c1cc2cc(c1)OCCSc1cccc(c1)Nc1nc(ncc1Cl)N2 [Example D50, 6-Chloro-N-phenyl-17-oxa-14-thia-2,4,8,24-tetraazatetracyclo[16.3.1.1(3,7).1(9,13)]tetracosa-1(22),3(24),4,6,9(23),10,12,18,20-nonaene-20-carboxamide trifluoroacetate]	–	–	–	–	–	IC50 ([1]; Table D1): 16 nM; IC50 ([2]; Table D1): 7.3 nM; IC50 ([3]; Table D1): 4.1 nM; IC50 ([4]; Table D1): 55 nM; IC50 ([5]; Table D1, 90 μM ATP): 1500 nM
Cc1nccc(N2CCC(CC(=O)Nc3ccc4cc3CCc3cncc(c3)Nc3ncc(Cl)c(n3)N4)CC2)n1 [Example A182, N-[6-Chloro-2,4,8,18,22-pentaazatetracyclo[14.3.1.1(3,7).1(9,13)]docosa-1(20),3(22),4,6,9(21),10,12,16,18-nonaen-12-yl]-2-[1-(2-methylpyrimidin-4-yl)piperidin-4-yl]acetamide tris(trifluoroacetate)]	> 200 nM	48 nM	> 200 nM	> 200 nM	32%	–
